In PubChem BioAssay (NCI):
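Five compound concentrations were applied to cells in 96-well plates for 48 hours; endpoints were derived by simple linear interpolation of the resulting dose-response curve. TGI marks complete inhibition of growth.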

What was measured:
Assay in all cases: inhibition of tumour cell growth, NCI panel, 48 h
SW-620 colon = test system: SW-620 colon
COLO 205 colon = test system: COLO 205 colon
SN12C renal = test system: SN12C renal
OVCAR-8 ovarian = test system: OVCAR-8 ovarian
HL-60(TB) leukemia = test system: HL-60(TB) leukemia
NCI-H460 lung = test system: NCI-H460 lung
NCI-H23 lung = test system: NCI-H23 lung
SNB-19 CNS = test system: SNB-19 CNS
UACC-62 melanoma = test system: UACC-62 melanoma
UO-31 renal = test system: UO-31 renal
SK-MEL-5 melanoma = test system: SK-MEL-5 melanoma
MOLT-4 leukemia = test system: MOLT-4 leukemia
TK-10 renal = test system: TK-10 renal
HCT-116 colon = test system: HCT-116 colon
KM12 colon = test system: KM12 colon
UACC-257 melanoma = test system: UACC-257 melanoma
SR leukemia = test system: SR leukemia
SF-295 CNS = test system: SF-295 CNS
OVCAR-3 ovarian = test system: OVCAR-3 ovarian
M14 melanoma = test system: M14 melanoma
IGROV1 ovarian = test system: IGROV1 ovarian
EKVX NSCLC = test system: EKVX NSCLC
OVCAR-4 ovarian = test system: OVCAR-4 ovarian
U251 CNS = test system: U251 CNS
SNB-75 CNS = test system: SNB-75 CNS
KM20L2 colon = test system: KM20L2 colon
HT29 colon = test system: HT29 colon
SK-OV-3 ovarian = test system: SK-OV-3 ovarian
SK-MEL-2 melanoma = test system: SK-MEL-2 melanoma
HOP-62 NSCLC = test system: HOP-62 NSCLC
K-562 leukemia = test system: K-562 leukemia
A549 NSCLC = test system: A549 NSCLC
HOP-92 NSCLC = test system: HOP-92 NSCLC
MALME-3M melanoma = test system: MALME-3M melanoma
SF-539 CNS = test system: SF-539 CNS
NCI-H522 lung = test system: NCI-H522 lung
XF 498 CNS = test system: XF 498 CNS
SF-268 CNS = test system: SF-268 CNS
RXF 393 renal = test system: RXF 393 renal
DMS 114 small cell lung = test system: DMS 114 small cell lung
CCRF-CEM leukemia = test system: CCRF-CEM leukemia
M19-MEL melanoma = test system: M19-MEL melanoma
RPMI-8226 leukemia = test system: RPMI-8226 leukemia
SK-MEL-28 melanoma = test system: SK-MEL-28 melanoma
MDA-MB-231 breast = test system: MDA-MB-231 breast
OVCAR-5 ovarian = test system: OVCAR-5 ovarian
MDA-N = test system: MDA-N
LOX IMVI melanoma = test system: LOX IMVI melanoma
MDA-MB-435 = test system: MDA-MB-435
HCT-15 colon = test system: HCT-15 colon
NCI-H226 lung = test system: NCI-H226 lung
HCC-2998 colon = test system: HCC-2998 colon
CAKI-1 renal = test system: CAKI-1 renal
A498 renal = test system: A498 renal
MCF7 breast = test system: MCF7 breast
HS 578T breast = test system: HS 578T breast
BT-549 breast = test system: BT-549 breast
DU-145 prostate = test system: DU-145 prostate
ACHN renal = test system: ACHN renal
NCI/ADR-RES ovarian = test system: NCI/ADR-RES ovarian
786-0 renal = test system: 786-0 renal
T-47D breast = test system: T-47D breast
PC-3 prostate = test system: PC-3 prostate

**Q.** For `O=C1C(Cl)N(c2ccccc2Cl)C1c1c[nH]c2ccccc12` (configuration not stated), which TGI (SW-620 colon) is on record?
**A.** > 100 µM

**Q.** What about the TGI (COLO 205 colon) of the same compound?
**A.** > 100 µM

**Q.** What about the TGI (SN12C renal) of the same compound?
**A.** > 100 µM

**Q.** What about the TGI (OVCAR-8 ovarian) of the same compound?
**A.** > 100 µM

**Q.** And the TGI (HL-60(TB) leukemia)?
**A.** > 100 µM

**Q.** What about the TGI (NCI-H460 lung) of the same compound?
**A.** > 100 µM

**Q.** And the TGI (NCI-H23 lung)?
**A.** > 100 µM

**Q.** What about the TGI (SNB-19 CNS) of the same compound?
**A.** > 100 µM

**Q.** What about the TGI (UACC-62 melanoma) of the same compound?
**A.** > 100 µM

**Q.** What about the TGI (UO-31 renal) of the same compound?
**A.** > 100 µM

**Q.** And the TGI (SK-MEL-5 melanoma)?
**A.** > 100 µM

**Q.** And the TGI (MOLT-4 leukemia)?
**A.** > 100 µM

**Q.** What about the TGI (TK-10 renal) of the same compound?
**A.** > 100 µM

**Q.** What about the TGI (HCT-116 colon) of the same compound?
**A.** > 100 µM

**Q.** What about the TGI (KM12 colon) of the same compound?
**A.** > 100 µM

**Q.** What about the TGI (UACC-257 melanoma) of the same compound?
**A.** > 100 µM

**Q.** And the TGI (SR leukemia)?
**A.** > 100 µM

**Q.** What about the TGI (SF-295 CNS) of the same compound?
**A.** > 100 µM

**Q.** And the TGI (OVCAR-3 ovarian)?
**A.** > 100 µM

**Q.** And the TGI (M14 melanoma)?
**A.** > 100 µM

**Q.** And the TGI (IGROV1 ovarian)?
**A.** > 100 µM

**Q.** What about the TGI (EKVX NSCLC) of the same compound?
**A.** > 100 µM

**Q.** What about the TGI (OVCAR-4 ovarian) of the same compound?
**A.** > 100 µM

**Q.** What about the TGI (U251 CNS) of the same compound?
**A.** > 100 µM

**Q.** What about the TGI (SNB-75 CNS) of the same compound?
**A.** > 100 µM

**Q.** What about the TGI (KM20L2 colon) of the same compound?
**A.** > 100 µM

**Q.** And the TGI (HT29 colon)?
**A.** > 100 µM

**Q.** And the TGI (SK-OV-3 ovarian)?
**A.** > 100 µM

**Q.** And the TGI (SK-MEL-2 melanoma)?
**A.** > 100 µM

**Q.** What about the TGI (HOP-62 NSCLC) of the same compound?
**A.** > 100 µM

**Q.** What about the TGI (K-562 leukemia) of the same compound?
**A.** > 100 µM

**Q.** What about the TGI (A549 NSCLC) of the same compound?
**A.** > 100 µM

**Q.** And the TGI (HOP-92 NSCLC)?
**A.** > 100 µM

**Q.** What about the TGI (MALME-3M melanoma) of the same compound?
**A.** > 100 µM

**Q.** What about the TGI (SF-539 CNS) of the same compound?
**A.** > 100 µM

**Q.** And the TGI (NCI-H522 lung)?
**A.** > 100 µM

**Q.** And the TGI (XF 498 CNS)?
**A.** > 100 µM

**Q.** What about the TGI (SF-268 CNS) of the same compound?
**A.** > 100 µM

**Q.** What about the TGI (RXF 393 renal) of the same compound?
**A.** > 100 µM

**Q.** What about the TGI (DMS 114 small cell lung) of the same compound?
**A.** > 100 µM

**Q.** And the TGI (CCRF-CEM leukemia)?
**A.** > 100 µM

**Q.** What about the TGI (M19-MEL melanoma) of the same compound?
**A.** > 100 µM

**Q.** What about the TGI (RPMI-8226 leukemia) of the same compound?
**A.** > 100 µM

**Q.** What about the TGI (SK-MEL-28 melanoma) of the same compound?
**A.** > 100 µM

**Q.** Which TGI (SW-620 colon) does the source give for `Cc1c(C)c2c(c(N)c1C#N)C(=O)N(Cc1ccc(S(N)(=O)=O)cc1)C2=O` here?
**A.** > 100 µM

**Q.** And the TGI (COLO 205 colon)?
**A.** > 100 µM

**Q.** And the TGI (SN12C renal)?
**A.** > 100 µM

**Q.** What about the TGI (OVCAR-8 ovarian) of the same compound?
**A.** > 35.7 µM

**Q.** And the TGI (HL-60(TB) leukemia)?
**A.** > 100 µM

**Q.** And the TGI (NCI-H460 lung)?
**A.** > 100 µM

**Q.** And the TGI (NCI-H23 lung)?
**A.** > 100 µM

**Q.** What about the TGI (SNB-19 CNS) of the same compound?
**A.** 38.7 µM

**Q.** And the TGI (MDA-MB-231 breast)?
**A.** 73.4 µM

**Q.** What about the TGI (UACC-62 melanoma) of the same compound?
**A.** > 100 µM

**Q.** What about the TGI (OVCAR-5 ovarian) of the same compound?
**A.** > 87.9 µM

**Q.** And the TGI (MDA-N)?
**A.** > 100 µM

**Q.** What about the TGI (UO-31 renal) of the same compound?
**A.** > 100 µM

**Q.** What about the TGI (SK-MEL-5 melanoma) of the same compound?
**A.** > 100 µM

**Q.** What about the TGI (MOLT-4 leukemia) of the same compound?
**A.** > 100 µM

**Q.** What about the TGI (TK-10 renal) of the same compound?
**A.** 99.7 µM

**Q.** What about the TGI (HCT-116 colon) of the same compound?
**A.** > 92.5 µM

**Q.** What about the TGI (LOX IMVI melanoma) of the same compound?
**A.** > 100 µM

**Q.** And the TGI (MDA-MB-435)?
**A.** > 100 µM

**Q.** What about the TGI (KM12 colon) of the same compound?
**A.** > 100 µM

**Q.** What about the TGI (HCT-15 colon) of the same compound?
**A.** > 100 µM

**Q.** And the TGI (NCI-H226 lung)?
**A.** > 62.9 µM

**Q.** And the TGI (UACC-257 melanoma)?
**A.** > 100 µM

**Q.** And the TGI (SR leukemia)?
**A.** > 100 µM

**Q.** What about the TGI (HCC-2998 colon) of the same compound?
**A.** > 100 µM

**Q.** What about the TGI (SF-295 CNS) of the same compound?
**A.** > 56.6 µM

**Q.** What about the TGI (CAKI-1 renal) of the same compound?
**A.** > 100 µM

**Q.** And the TGI (A498 renal)?
**A.** > 70.6 µM

**Q.** And the TGI (OVCAR-3 ovarian)?
**A.** > 63.2 µM

**Q.** And the TGI (MCF7 breast)?
**A.** > 100 µM

**Q.** And the TGI (M14 melanoma)?
**A.** > 73.6 µM

**Q.** And the TGI (IGROV1 ovarian)?
**A.** > 59.7 µM

**Q.** And the TGI (HS 578T breast)?
**A.** > 100 µM

**Q.** What about the TGI (EKVX NSCLC) of the same compound?
**A.** > 100 µM

**Q.** And the TGI (OVCAR-4 ovarian)?
**A.** > 100 µM

**Q.** And the TGI (U251 CNS)?
**A.** > 80.6 µM

**Q.** And the TGI (SNB-75 CNS)?
**A.** > 53.3 µM

**Q.** And the TGI (BT-549 breast)?
**A.** > 100 µM

**Q.** And the TGI (HT29 colon)?
**A.** > 100 µM

**Q.** And the TGI (DU-145 prostate)?
**A.** > 75.8 µM

**Q.** And the TGI (SK-OV-3 ovarian)?
**A.** > 100 µM

**Q.** What about the TGI (SK-MEL-2 melanoma) of the same compound?
**A.** > 100 µM

**Q.** What about the TGI (HOP-62 NSCLC) of the same compound?
**A.** 19.3 µM

**Q.** What about the TGI (K-562 leukemia) of the same compound?
**A.** > 100 µM

**Q.** What about the TGI (ACHN renal) of the same compound?
**A.** > 63.4 µM

**Q.** And the TGI (A549 NSCLC)?
**A.** > 100 µM

**Q.** And the TGI (NCI/ADR-RES ovarian)?
**A.** > 100 µM

**Q.** And the TGI (HOP-92 NSCLC)?
**A.** > 44.6 µM

**Q.** What about the TGI (MALME-3M melanoma) of the same compound?
**A.** > 100 µM

**Q.** And the TGI (SF-539 CNS)?
**A.** > 60.1 µM

**Q.** And the TGI (SF-268 CNS)?
**A.** > 86.3 µM

**Q.** What about the TGI (786-0 renal) of the same compound?
**A.** > 56.5 µM

**Q.** What about the TGI (RXF 393 renal) of the same compound?
**A.** 39.3 µM

**Q.** And the TGI (CCRF-CEM leukemia)?
**A.** > 100 µM

**Q.** What about the TGI (T-47D breast) of the same compound?
**A.** > 59.2 µM

**Q.** And the TGI (RPMI-8226 leukemia)?
**A.** > 100 µM

**Q.** And the TGI (PC-3 prostate)?
**A.** > 100 µM

**Q.** And the TGI (SK-MEL-28 melanoma)?
**A.** > 100 µM
